Source: PMC12801355, “Peptide Amphiphiles Hitchhike on Endogenous Biomolecules for Enhanced Cancer Imaging and Therapy” (Advanced Materials (Deerfield Beach, Fla.), 2025)
Where a SMILES comes first, the peptide text is derived from it. The star is where a group is joined. Palmitoyl = CCCCCCCCCCCCCCCC(=O)*

What was measured:
Assay in all cases: Mass spectrometry of proteins pulled down with biotinylated SA‐E (SA‐Eb) from human plasma
Type in all cases: binding
human plasma proteins [1] = biological target: T1, human plasma proteins (Homo sapiens, UniProt P06727)
T1 construct: incubated with 50% pooled human plasma at 37 °C for 2 h; from tissue; host or cells: pooled human plasma (50%)
T1 sequence (P06727 21-396): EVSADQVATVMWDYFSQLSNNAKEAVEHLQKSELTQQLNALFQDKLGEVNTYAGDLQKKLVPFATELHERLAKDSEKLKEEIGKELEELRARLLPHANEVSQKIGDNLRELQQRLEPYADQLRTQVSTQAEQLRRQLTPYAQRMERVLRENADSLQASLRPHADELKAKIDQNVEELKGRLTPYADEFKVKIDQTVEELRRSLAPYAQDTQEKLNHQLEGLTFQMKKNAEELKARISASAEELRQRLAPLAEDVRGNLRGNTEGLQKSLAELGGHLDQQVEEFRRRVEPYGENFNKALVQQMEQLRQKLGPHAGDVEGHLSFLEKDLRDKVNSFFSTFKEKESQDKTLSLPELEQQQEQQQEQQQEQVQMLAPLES
Description: (§1) Samples were prepared for mass spectrometry analysis via a pull‐down of a biotinylated version of the SA‐E probe (SA‐Eb, 100 µM) incubated with 50% pooled human plasma at 37 °C for 2 h. Before incubation with the SA‐Eb‐plasma mixture, magnetic streptavidin‐coated beads (Dynabeads MyOne Streptavidin T1, Invitrogen, 65601) were washed with PBS (10 mM, pH 7.4) then blocked with 1% casein equal to the total initial volume of beads for 15 min at room temperature. After blocking, beads were washed again with PBS. Beads were then combined with SA‐Eb‐plasma solution, 25 µL beads to 200 µL mixture. This mixture was then incubated at room temperature for 30 min. After incubation, the remaining solution was removed, and the beads were washed five times with PBS. Bound SA‐Eb was eluted from beads in 30 µL 0.5% Triton X‐100 solution. Magnetic beads were then removed, and the elution was collected for analysis. For plasma control, the incubation with SA‐Eb step was skipped, and 50% plasma in PBS was incubated with beads and washed and eluted using the same method as the SA‐Eb‐plasma solution. The elution solutions were then analyzed by the Proteomics Shared Resource facility at Oregon Health & Science University (See Supporting Information for details).
(§2) Sample Preparation. Eluted plasma samples were dried down and stored at -80°C. Samples were thawed at room temperature for 10 min, and 75 µL of SDS protein extraction buffer (5% SDS, 50 mM […]; TEAB) was added to each sample. Samples were shaken in a Thermo mixer for 10 minutes at room temperature and centrifuged at 10,000 g for 5 min. Each sample was transferred from a 0.5 mL tube to a 1.5 mL LoBind centrifuge tube. Samples were reduced by adding 3.4 µL of 0.5 M dithiothreitol and incubated at 95 °C for 10 min. Samples were alkylated by the addition of 6.8 µL of 0.5 M iodoacetamide and were incubated at room temperature for 30 min in the dark. Samples were then acidified by the addition of 8.52 µL of 12% phosphoric acid, and 562 µL of SDS protein binding buffer (90% methanol, 100 mM TEAB, pH 7.51). Samples were transferred 165 µL at a time to S-trap micro columns (Protifi, Farmingdale, NY) and inserted into 1.5 mL of polypropylene tubes. Samples were centrifuged at 4,000 g for 3 min between each addition of the sample. S-trap columns were washed 6 times using 150 µL of 90% methanol containing 100 mM of TEAB followed by centrifugation at 4,000g for 3 min between each wash step. S-trap columns containing the bound sample proteins were transferred to 1.5 mL LoBind centrifuge tubes and 40 µL of 80 ng/µL sequencing grade modified trypsin (Pierce TM Trypsin Protease MS-Grade, XG348166) in 50 mM TEAB was added. S-trap columns were loosely capped, and digestion was performed at 37°C overnight in a humidified chamber.
(§3) After completion of digestion, peptides were eluted by sequential addition of 40 µL of TEAB, 40 µL of 0.2% aqueous formic acid, and 40 µl of 50% acetonitrile, 0.2% formic acid, with centrifugation at 4,000 g for 4 min between each addition of elution buffer. The elution fractions were combined and then dried by vacuum centrifugation. Samples were reconstituted by adding 20 µL of 5% formic acid, shaking at 37 °C, and spinning at 15,000 g for 5 min. The supernatant of each sample was transferred to an auto-sample vial.
(§4) Data analysis. Mass spectrometry data from all samples were processed using COMET/PAWS against Uniprot_Human_database. Comet (v. 2016.01, rev. 3)^8 was used to search MS2 Spectra against a January 2023 version of canonical FASTA protein database containing human uniprot sequences, and concatenated sequence-reversed entries to estimate error thresholds and 179 common contaminant sequences and their reversed forms. The database processing was performed using python scripts available at https://github.com/pwilmart/fasta_utilities.git and Comet results were processed using the PAW pipeline2 from https://github.com/pwilmart/PAW_pipeline.git.

human plasma proteins [2] = biological target: T2, human plasma proteins (Homo sapiens, UniProt P02768); details: for Total Counts, Albumin: pull‐down with biotinylated SA-E
T2 construct: incubated with 50% pooled human plasma at 37 °C for 2 h; from tissue; host or cells: pooled human plasma (50%)
T2 sequence (P02768 25-609): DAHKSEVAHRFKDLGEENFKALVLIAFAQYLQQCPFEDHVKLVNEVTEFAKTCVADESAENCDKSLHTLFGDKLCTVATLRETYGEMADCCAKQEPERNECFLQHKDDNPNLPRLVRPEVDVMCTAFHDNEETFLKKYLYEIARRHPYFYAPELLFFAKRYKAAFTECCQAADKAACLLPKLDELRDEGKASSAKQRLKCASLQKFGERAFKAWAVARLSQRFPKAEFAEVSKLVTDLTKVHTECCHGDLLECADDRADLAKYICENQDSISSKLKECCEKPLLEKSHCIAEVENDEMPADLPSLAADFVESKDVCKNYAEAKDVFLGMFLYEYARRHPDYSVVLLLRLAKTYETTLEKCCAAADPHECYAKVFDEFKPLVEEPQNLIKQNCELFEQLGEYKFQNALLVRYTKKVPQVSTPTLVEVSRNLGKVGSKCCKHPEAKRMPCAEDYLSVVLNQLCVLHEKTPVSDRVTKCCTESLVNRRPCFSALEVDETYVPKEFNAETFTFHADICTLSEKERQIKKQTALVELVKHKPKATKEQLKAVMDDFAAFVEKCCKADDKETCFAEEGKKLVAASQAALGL
Description: as §1, §2, §3, §4

human plasma proteins [3] = biological target: T3, human plasma proteins (Homo sapiens, UniProt P05090)
T3 construct: incubated with 50% pooled human plasma at 37 °C for 2 h; from tissue; host or cells: pooled human plasma (50%)
T3 sequence (P05090 21-189): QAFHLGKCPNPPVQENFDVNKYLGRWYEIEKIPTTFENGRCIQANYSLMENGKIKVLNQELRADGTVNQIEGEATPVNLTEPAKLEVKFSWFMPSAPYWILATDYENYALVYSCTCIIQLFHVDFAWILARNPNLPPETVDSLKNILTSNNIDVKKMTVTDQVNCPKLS
Description: as §1, §2, §3, §4

human plasma proteins [4] = biological target: T4, human plasma proteins (Homo sapiens, UniProt P02649)
T4 construct: incubated with 50% pooled human plasma at 37 °C for 2 h; from tissue; host or cells: pooled human plasma (50%)
T4 sequence (P02649 19-317): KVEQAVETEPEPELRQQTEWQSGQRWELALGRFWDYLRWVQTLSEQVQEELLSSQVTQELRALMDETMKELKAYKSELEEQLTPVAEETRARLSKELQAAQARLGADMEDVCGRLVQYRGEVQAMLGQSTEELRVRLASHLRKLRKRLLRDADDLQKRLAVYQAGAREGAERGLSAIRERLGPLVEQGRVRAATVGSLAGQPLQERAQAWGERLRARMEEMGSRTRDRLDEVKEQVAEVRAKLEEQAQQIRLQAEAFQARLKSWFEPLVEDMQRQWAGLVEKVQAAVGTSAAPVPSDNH
Description: as §1, §2, §3, §4

human plasma proteins [5] = biological target: T5, human plasma proteins (Homo sapiens, UniProt O95445)
T5 construct: incubated with 50% pooled human plasma at 37 °C for 2 h; from tissue; host or cells: pooled human plasma (50%)
T5 sequence (O95445 whole entry): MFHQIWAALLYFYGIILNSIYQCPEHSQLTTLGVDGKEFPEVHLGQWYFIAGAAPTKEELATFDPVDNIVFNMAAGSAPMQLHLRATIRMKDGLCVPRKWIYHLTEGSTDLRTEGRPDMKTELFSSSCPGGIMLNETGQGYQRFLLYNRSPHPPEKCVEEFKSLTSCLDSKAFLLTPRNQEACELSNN
Description: as §1, §2, §3, §4

human plasma proteins [6] = biological target: T6, human plasma proteins (Homo sapiens, UniProt P02647)
T6 construct: incubated with 50% pooled human plasma at 37 °C for 2 h; from tissue; host or cells: pooled human plasma (50%)
T6 sequence (P02647 19-267): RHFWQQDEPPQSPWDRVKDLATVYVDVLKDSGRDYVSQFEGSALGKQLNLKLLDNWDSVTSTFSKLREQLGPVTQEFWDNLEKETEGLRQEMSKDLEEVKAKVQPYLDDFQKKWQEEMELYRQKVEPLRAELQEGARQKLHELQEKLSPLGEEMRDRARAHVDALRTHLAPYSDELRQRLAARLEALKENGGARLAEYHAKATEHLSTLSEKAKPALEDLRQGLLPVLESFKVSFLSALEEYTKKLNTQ
Description: as §1, §2, §3, §4

human plasma proteins [7] = biological target: T7, human plasma proteins (Homo sapiens, UniProt P08519)
T7 construct: incubated with 50% pooled human plasma at 37 °C for 2 h; from tissue; host or cells: pooled human plasma (50%)
T7 sequence (P08519 20-2040): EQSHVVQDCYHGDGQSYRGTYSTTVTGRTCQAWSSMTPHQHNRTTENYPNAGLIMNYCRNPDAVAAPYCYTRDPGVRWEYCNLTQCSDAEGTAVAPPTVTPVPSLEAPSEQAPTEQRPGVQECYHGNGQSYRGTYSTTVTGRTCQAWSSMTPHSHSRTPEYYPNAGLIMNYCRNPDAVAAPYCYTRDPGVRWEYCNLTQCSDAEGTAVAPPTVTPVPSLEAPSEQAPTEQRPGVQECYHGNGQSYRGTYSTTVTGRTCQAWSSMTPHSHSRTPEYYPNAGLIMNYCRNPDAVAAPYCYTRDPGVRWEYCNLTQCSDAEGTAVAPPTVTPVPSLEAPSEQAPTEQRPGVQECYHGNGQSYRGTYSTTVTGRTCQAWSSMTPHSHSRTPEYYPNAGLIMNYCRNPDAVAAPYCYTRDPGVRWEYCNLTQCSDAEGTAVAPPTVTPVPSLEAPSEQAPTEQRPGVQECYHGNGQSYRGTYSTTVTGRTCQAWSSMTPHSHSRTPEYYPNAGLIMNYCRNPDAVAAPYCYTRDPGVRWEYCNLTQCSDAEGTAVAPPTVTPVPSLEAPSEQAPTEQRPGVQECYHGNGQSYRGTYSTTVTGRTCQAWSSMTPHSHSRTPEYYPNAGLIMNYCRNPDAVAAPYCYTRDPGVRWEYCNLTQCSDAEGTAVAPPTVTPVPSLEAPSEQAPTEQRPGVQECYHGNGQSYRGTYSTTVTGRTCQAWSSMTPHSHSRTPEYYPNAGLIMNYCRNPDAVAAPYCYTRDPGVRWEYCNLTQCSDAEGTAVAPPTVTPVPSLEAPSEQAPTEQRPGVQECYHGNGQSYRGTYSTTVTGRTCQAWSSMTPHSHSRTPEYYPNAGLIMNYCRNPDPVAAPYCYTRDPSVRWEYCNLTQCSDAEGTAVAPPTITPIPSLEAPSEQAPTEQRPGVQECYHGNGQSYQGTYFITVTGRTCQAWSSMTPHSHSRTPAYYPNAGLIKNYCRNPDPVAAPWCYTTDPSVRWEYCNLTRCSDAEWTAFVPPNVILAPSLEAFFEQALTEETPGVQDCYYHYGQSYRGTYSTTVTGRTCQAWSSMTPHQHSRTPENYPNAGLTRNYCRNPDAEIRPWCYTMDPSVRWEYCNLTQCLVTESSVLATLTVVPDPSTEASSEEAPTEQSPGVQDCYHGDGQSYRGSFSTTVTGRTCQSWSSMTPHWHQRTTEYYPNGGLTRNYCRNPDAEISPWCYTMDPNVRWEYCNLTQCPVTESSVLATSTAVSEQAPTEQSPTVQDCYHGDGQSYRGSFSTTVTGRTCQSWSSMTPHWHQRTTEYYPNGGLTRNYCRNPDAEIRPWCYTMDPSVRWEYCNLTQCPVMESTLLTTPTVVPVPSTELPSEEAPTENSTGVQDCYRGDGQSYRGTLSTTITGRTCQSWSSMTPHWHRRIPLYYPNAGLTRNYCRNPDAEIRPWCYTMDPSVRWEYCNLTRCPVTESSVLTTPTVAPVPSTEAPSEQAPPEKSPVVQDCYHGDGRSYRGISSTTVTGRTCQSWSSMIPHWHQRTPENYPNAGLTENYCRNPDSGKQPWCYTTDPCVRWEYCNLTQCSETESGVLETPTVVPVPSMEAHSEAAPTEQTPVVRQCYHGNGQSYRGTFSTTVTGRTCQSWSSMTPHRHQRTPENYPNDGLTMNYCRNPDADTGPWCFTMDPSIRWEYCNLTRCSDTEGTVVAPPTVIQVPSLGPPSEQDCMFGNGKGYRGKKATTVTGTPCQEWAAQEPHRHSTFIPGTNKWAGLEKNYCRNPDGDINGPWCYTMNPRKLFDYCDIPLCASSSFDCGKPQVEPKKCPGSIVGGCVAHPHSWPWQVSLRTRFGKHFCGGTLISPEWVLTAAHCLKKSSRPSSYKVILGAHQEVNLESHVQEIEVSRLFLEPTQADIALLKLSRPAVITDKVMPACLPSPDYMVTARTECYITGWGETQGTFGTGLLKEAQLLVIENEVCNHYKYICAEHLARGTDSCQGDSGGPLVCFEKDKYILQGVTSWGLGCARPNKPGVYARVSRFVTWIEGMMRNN
Description: as §1, §2, §3, §4

human plasma proteins [8] = biological target: T8, human plasma proteins (Homo sapiens, UniProt P02654)
T8 construct: incubated with 50% pooled human plasma at 37 °C for 2 h; from tissue; host or cells: pooled human plasma (50%)
T8 sequence (P02654 27-83): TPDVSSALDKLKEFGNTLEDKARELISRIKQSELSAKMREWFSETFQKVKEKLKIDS
Description: as §1, §2, §3, §4

For CCCCCCCCCCCCCCCC(=O)NCC(=O)NCC(=O)NCC(=O)N[C@@H](Cc1c[nH]cn1)C(=O)N[C@@H](C)C(=O)N[C@@H](C)C(=O)N[C@@H](CC(N)=O)C(=O)NCC(=O)N[C@@H](CCC(=O)O)C(=O)N[C@@H](CCC(=O)O)C(=O)N[C@@H](CS)C(=O)N[C@@H](CCC(=O)O)C(=O)O [SA‐E] (Palmitoyl-GGGHAANGEECE-OH), the “Percentage, Apolipoprotein A-IV” value (human plasma proteins [1]; replicate 1) was 1.1%, the “Total Counts, Apolipoprotein A-IV” value (human plasma proteins [1]; replicate 1) was 39 and the “Percentage, Apolipoprotein A-IV” value (human plasma proteins [1]; replicate 2) was 0.6%. The “Total Counts, Apolipoprotein A-IV” value (human plasma proteins [1]; replicate 2) was 16, the “Total Counts, Albumin” value (human plasma proteins [2]; replicate 1) was 1215 and the “Total Counts, Albumin” value (human plasma proteins [2]; replicate 2) was 923. The “Percentage, Albumin” value (human plasma proteins [2]; replicate 1) was 34.0%, the “Percentage, Albumin” value (human plasma proteins [2]; replicate 2) was 32.5% and the “Percentage, Apolipoprotein D” value (human plasma proteins [3]; replicate 1) was 0.6%. The “Total Counts, Apolipoprotein D” value (human plasma proteins [3]; replicate 1) was 22, the “Percentage, Apolipoprotein D” value (human plasma proteins [3]; replicate 2) was 0.8% and the “Total Counts, Apolipoprotein D” value (human plasma proteins [3]; replicate 2) was 22. The “Percentage, Apolipoprotein E” value (human plasma proteins [4]; replicate 1) was 1.8%, the “Total Counts, Apolipoprotein E” value (human plasma proteins [4]; replicate 1) was 66 and the “Percentage, Apolipoprotein E” value (human plasma proteins [4]; replicate 2) was 2.1%. The “Total Counts, Apolipoprotein E” value (human plasma proteins [4]; replicate 2) was 59, the “Percentage, Apolipoprotein M” value (human plasma proteins [5]; replicate 1) was 0.3% and the “Total Counts, Apolipoprotein M” value (human plasma proteins [5]; replicate 1) was 11. For the same compound, the “Percentage, Apolipoprotein M” value (human plasma proteins [5]; replicate 2) was 0.4%, the “Total Counts, Apolipoprotein M” value (human plasma proteins [5]; replicate 2) was 12 and the “Percentage, Apolipoprotein A-I” value (human plasma proteins [6]; replicate 1) was 15.7%. The “Total Counts, Apolipoprotein A-I” value (human plasma proteins [6]; replicate 1) was 560, the “Percentage, Apolipoprotein A-I” value (human plasma proteins [6]; replicate 2) was 21.1% and the “Total Counts, Apolipoprotein A-I” value (human plasma proteins [6]; replicate 2) was 600. The “Percentage, Apolipoprotein(a)” value (human plasma proteins [7]; replicate 1) was 0.1%, the “Total Counts, Apolipoprotein(a)” value (human plasma proteins [7]; replicate 1) was 4 and the “Percentage, Apolipoprotein(a)” value (human plasma proteins [7]; replicate 2) was 0.1%. The “Total Counts, Apolipoprotein(a)” value (human plasma proteins [7]; replicate 2) was 3, the “Percentage, Apolipoprotein C-I” value (human plasma proteins [8]; replicate 1) was 0.2% and the “Total Counts, Apolipoprotein C-I” value (human plasma proteins [8]; replicate 1) was 6. For the same compound, the “Percentage, Apolipoprotein C-I” value (human plasma proteins [8]; replicate 2) was 0.3% and the “Total Counts, Apolipoprotein C-I” value (human plasma proteins [8]; replicate 2) was 9.
